This assay concerns the target β-galactosidase (Escherichia coli, UniProt P00722). Nature of the assay: Kinetics of β-galactosidase hydrolysis of p-NPBG and its inhibition by diethanolamine. It is filed as biochemical. Conditions: about 1M diethanolamine, pH 8.6, normal p-NPBG concentrations (up to approximately 5mM). The method, then:
β-galactosidase has a pH optimum of 7.4 for p-nitrophenyl-β-D-galactoside (p-NPBG), although in a single assay format using normal substrate concentrations (up to approximately 5mM), the pH can be raised to 8.6 with only a slight loss (approximately 20%) of activity.

Molecules are shown by their SMILES.

Sequence of β-galactosidase (P00722 2-1024): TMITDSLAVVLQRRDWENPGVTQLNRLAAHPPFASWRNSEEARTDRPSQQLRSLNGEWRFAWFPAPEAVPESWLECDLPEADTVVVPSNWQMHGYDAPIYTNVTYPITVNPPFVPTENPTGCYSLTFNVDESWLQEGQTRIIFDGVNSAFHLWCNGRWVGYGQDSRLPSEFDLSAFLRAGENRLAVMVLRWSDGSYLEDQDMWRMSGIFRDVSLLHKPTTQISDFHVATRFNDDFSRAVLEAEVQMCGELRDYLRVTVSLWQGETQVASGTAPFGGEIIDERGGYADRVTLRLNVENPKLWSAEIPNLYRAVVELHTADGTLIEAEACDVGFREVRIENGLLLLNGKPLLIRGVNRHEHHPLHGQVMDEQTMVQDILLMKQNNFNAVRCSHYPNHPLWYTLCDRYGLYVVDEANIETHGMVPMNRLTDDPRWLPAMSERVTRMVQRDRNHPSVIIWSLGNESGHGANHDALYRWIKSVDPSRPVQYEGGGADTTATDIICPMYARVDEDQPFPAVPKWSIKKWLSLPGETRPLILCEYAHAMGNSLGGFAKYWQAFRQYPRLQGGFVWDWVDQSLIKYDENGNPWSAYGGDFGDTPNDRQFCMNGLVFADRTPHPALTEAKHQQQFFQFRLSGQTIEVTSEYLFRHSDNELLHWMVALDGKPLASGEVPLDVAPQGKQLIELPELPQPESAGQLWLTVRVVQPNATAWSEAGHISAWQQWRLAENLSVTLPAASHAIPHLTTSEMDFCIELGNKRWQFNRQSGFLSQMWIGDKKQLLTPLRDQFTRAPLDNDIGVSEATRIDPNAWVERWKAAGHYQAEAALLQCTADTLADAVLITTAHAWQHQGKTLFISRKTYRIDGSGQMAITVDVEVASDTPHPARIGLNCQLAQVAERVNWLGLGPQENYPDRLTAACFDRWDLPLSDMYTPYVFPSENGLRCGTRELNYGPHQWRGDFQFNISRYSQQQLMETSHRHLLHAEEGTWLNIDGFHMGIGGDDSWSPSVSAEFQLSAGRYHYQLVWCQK

In the case of `OCCNCCO` [diethanolamine], the “activity of β-galactosidase in the presence of diethanolamine” value is on record as “almost totally abolished”.

Source of the values: US4808521A, “Double-labeled enzymeimmunoassay methods” (priority 1985, dated 1989).
